Experimental data taken from patent US20110166112A1, “METHOD FOR STIMULATING PLATELET PRODUCTION” (Eisai, Inc., priority 2009, published 2011).

System: subjects with chronic ITP who completed 28 days of study treatment
Assay: Phase 2 6-month rollover study of E5501: effectiveness (durable, transient, overall platelet response, maintenance, steroid use, upward dose titration)
Format: in vivo, human
Description: This study was a multicenter, parallel-group, rollover study of E5501 in subjects with chronic ITP who were enrolled in and completed 28 days' of study treatment. All subjects who completed the previous study and otherwise met the eligibility criteria for this rollover protocol were enrolled.
Subjects who rolled over from the previous study were treated for an additional 6 months after completing previous study.
Initial dose: Subjects who met the efficacy response in the previous study continued to receive their previous blinded dose at entry into this study.
Dose titration was performed in an open label fashion in 10 mg increments as follows: • Nonresponders, who received initial doses of open-label E5501 10 mg in the previous study, could have their dose increased in 10 mg increments every 14 days to a maximum of 40 mg/day in the absence of platelet response.
Subjects were also permitted to reduce their dose of ITP-directed concomitant therapy (e.g., steroids). The overall goal of any dose modification was to maintain the subject's peripheral platelet count above 50,000/mm^3 and to decrease the need for ITP-directed concomitant medications (if applicable). During any dose modification of study drug or ITP-directed concomitant medications, platelet counts were collected every week. After platelet counts stabilized, platelet count collection reverted to a biweekly schedule.
Assessments: Study subjects were evaluated for safety and efficacy (including platelet count) on day 1 and then biweekly while receiving treatment.
Two primary analysis populations were used to summarize safety and effectiveness: • Safety population: all subjects who received at least 1 dose of study drug and had at least 1 post-treatment safety assessment in either the previous or this study. All safety analyses were performed using this population. • Full Analysis Set (FAS): all subjects who participated in both studies and who had at least one post-treatment effectiveness assessment in this study. All efficacy analyses were performed using this population.
Secondary Endpoints: The secondary endpoints were markers of effectiveness, including: • 1. Changes in platelet count from baselines of the previous study and of this study by study visit; and • 2. Durable platelet response, defined as subjects who had at least 3 platelet count assessments in the last 14 weeks of the 24-week treatment period, and whose platelet count was at a response level for at least 75% of the time in the last 14 weeks during the 24-week treatment period, with no rescue medication used during the 24-week treatment period. Platelet response level was defined as ≧50,000/mm^3 for subjects whose baseline platelet count was <30,000/mm^3 in the previous study or an increase in baseline platelet count of ≧20,000/mm^3 for subjects receiving steroids whose baseline platelet count in the previous study was ≧30,000/mm^3 but <50,000/mm^3; • 3. Transient platelet response, defined as achievement of a response level for any 4 consecutive weeks during the 24-week treatment period without durable platelet response in the absence of any rescue medication; • 4. Overall platelet response (durable platelet response plus transient platelet response); • 5. Maintenance of platelet response, defined as subjects who were responders in the previous study (e.g., responders on day 28 of the previous study) who achieved a durable response in this study and had no upward dose titration of E5501 during this study; • 6. Permanent discontinuation of steroid use, defined as subjects who used steroid medication within the 2-week period before their first dose of study drug in this study, and for whom concomitant steroid medication was discontinued at least 8 weeks before the end of the treatment period; • 7. Reduction of steroid use by at least 50%. […]

[1] = FAS, Baseline PC >15K/mm^3, Responders, N assessed 19
[2] = FAS, Baseline PC ≦15K/mm^3, E5501 Total, N assessed 15
[3] = FAS, Baseline PC ≦15K/mm^3, Non-Responders, N assessed 9
[4] = FAS, Baseline PC ≦15K/mm^3, Responders, N assessed 6
[5] = FAS, History of Splenectomy, E5501 Total, N assessed 17
[6] = FAS, History of Splenectomy, Non-Responders, N assessed 10
[7] = FAS, History of Splenectomy, Responders, N assessed 7
[8] = FAS, No History of Splenectomy, E5501 Total, N assessed 36
[9] = FAS, No History of Splenectomy, Non-Responders, N assessed 18
[10] = FAS, No History of Splenectomy, Responders, N assessed 18
[11] = FAS, ≧3 Lines of Prior Therapy, E5501 Total, N assessed 35
[12] = FAS, ≧3 Lines of Prior Therapy, Non-Responders, N assessed 22
[13] = FAS, ≧3 Lines of Prior Therapy, Responders, N assessed 13
[14] = SE population, E5501 Total (N=36)
[15] = SE population, Non-Responders (N=15)
[16] = SE population, Responders (N=21)

O=C(Nc1nc(-c2cc(Cl)cs2)c(N2CCN(C3CCCCC3)CC2)s1)c1cnc(N2CCC(C(=O)O)CC2)c(Cl)c1 [E5501, 1-(3-chloro-5-{[4-(4-chlorothiophen-2-yl)-5-(4-cyclohexylpiperazin-1-yl)thiazol-2-yl]carbamoyl}pyridine-2-yl)piperidine-4-carboxylic acid]
Durable Platelet Response, n (%) with response [1]: 15 (78.9) n (%)
Overall Platelet Response, n (%) with response [1]: 18 (94.7) n (%)
Durable Platelet Response, n (%) with response [2]: 4 (26.7) n (%)
Overall Platelet Response, n (%) with response [2]: 7 (46.7) n (%)
Durable Platelet Response, n (%) with response [3]: 1 (11.1) n (%)
Overall Platelet Response, n (%) with response [3]: 3 (33.3) n (%)
Durable Platelet Response, n (%) with response [4]: 3 (50.0) n (%)
Overall Platelet Response, n (%) with response [4]: 4 (66.7) n (%)
Durable Platelet Response, n (%) with response [5]: 5 (29.4) n (%)
Overall Platelet Response, n (%) with response [5]: 10 (58.8) n (%)
Durable Platelet Response, n (%) with response [6]: 1 (10.0) n (%)
Overall Platelet Response, n (%) with response [6]: 5 (50.0) n (%)
Durable Platelet Response, n (%) with response [7]: 4 (57.1) n (%)
Overall Platelet Response, n (%) with response [7]: 5 (71.4) n (%)
Durable Platelet Response, n (%) with response [8]: 23 (63.9) n (%)
Overall Platelet Response, n (%) with response [8]: 30 (83.3) n (%)
Durable Platelet Response, n (%) with response [9]: 9 (50.0) n (%)
Overall Platelet Response, n (%) with response [9]: 13 (72.2) n (%)
Durable Platelet Response, n (%) with response [10]: 14 (77.8) n (%)
Overall Platelet Response, n (%) with response [10]: 17 (94.4) n (%)
overall platelet response rate (FAS, all subjects): 75.5%
overall platelet response rate (FAS, nonresponders): 64.3%
overall platelet response rate (FAS, responders): 88.0%
Durable Platelet Response, n (%) with response [11]: 16 (45.7) n (%)
Overall Platelet Response, n (%) with response [11]: 25 (71.4) n (%)
Durable Platelet Response, n (%) with response [12]: 7 (31.8) n (%)
Overall Platelet Response, n (%) with response [12]: 14 (63.6) n (%)
Durable Platelet Response, n (%) with response [13]: 9 (69.2) n (%)
Overall Platelet Response, n (%) with response [13]: 11 (84.6) n (%)
overall platelet response rate (SE population): 94.4%
Durable Platelet Response No, % [14]: (25.0) %
Durable Platelet Response Yes, % [14]: (75.0) %
Transient Platelet Response No, % [14]: (80.6) %
Transient Platelet Response Yes, % [14]: (19.4) %
With Overall Response No, % [14]: (5.6) %
With Overall Response Yes, % [14]: (94.4) %
Durable Platelet Response No, % [15]: (40.0) %
Durable Platelet Response Yes, % [15]: (60.0) %
Transient Platelet Response No, % [15]: (73.3) %
Transient Platelet Response Yes, % [15]: (26.7) %
With Overall Response No, % [15]: (13.3) %
With Overall Response Yes, % [15]: (86.7) %
Durable Platelet Response No, % [16]: (14.3) %
Durable Platelet Response Yes, % [16]: (85.7) %
Transient Platelet Response No, % [16]: (85.7) %
Transient Platelet Response Yes, % [16]: (14.3) %
With Overall Response Yes, % [16]: (100.0) %
Durable platelet response rate (SE population, all subjects): 75%
Durable platelet response rate (SE population, non-responders): 60.0%
Durable platelet response rate (SE population, responders): 85.7%
subjects who needed an upward dose titration (all subjects (n=26/53)): 49%
subjects able to decrease their steroid dose by at least 50% (in vivo): Thirteen
improved overall response rate when subjects received a dose titration (non-responders in the previous study): 87.6%
overall response rate (non-responders on E5501 2.5 mg in previous study, open-label E5501 10 mg in current study): 70%
overall response rate (non-responders on E5501 5 mg in previous study, open-label E5501 10 mg in current study): 80%
overall response rate (non-responders on placebo in previous study, open-label E5501 10 mg in current study): 80%
subjects not responding to E5501 10 mg in the previous study who responded at 20 mg (of five subjects): Two
subjects who used concomitant steroids able to decrease their concomitant steroid use by at least 50% (regardless of responder status): 54.2%
subjects who used concomitant steroids able to permanently discontinue using steroids (regardless of responder status): 33.3%
overall response when subjects received a dose titration (responders in the previous study): 100%
overall response rate (responders receiving double-blind E5501 10 mg): 71.4%
platelet counts from baseline (FIG. 2 FAS, FIG. 3 SE population) (rollover study): markedly increased from baseline
durable platelet response estimate (sensitivity analysis based on 55 subjects, all subjects): 50.9%
durable platelet response estimate (sensitivity analysis, non-responders): 33.3%
durable platelet response estimate (sensitivity analysis, responders): 72%
